Test results published in patent US10194659B2, “Active compound combinations” (BAYER CROPSCIENCE AKTIENGESELLSCHAFT, priority 2014, dated 2019).
Values joined by “and” are separate entries in the source; they are usually repeats but may differ in a detail not shown here. Identical values can stand only once.

Legend:
Septoria tritici = assay: In vivo preventive Septoria tritici test (wheat); details: evaluated 21 days after inoculation
Description: (§1) To produce a suitable preparation of active compound, 1 part by weight of active compound or active compound combination is mixed with the stated amounts of solvent and emulsifier, and the concentrate is diluted with water to the desired concentration. To test for preventive activity, young plants are sprayed with the preparation of active compound or active compound combination at the stated rate of application. After the spray coating has been dried, the plants are sprayed with a spore suspension of Septoria tritici. The plants remain for 48 hours in an incubation cabinet at approximately 20° C. and a relative atmospheric humidity of approximately 100% and afterwards for 60 hours at approximately 15° C. in a translucent incubation cabinet at a relative atmospheric humidity of approximately 100%. The plants are placed in the greenhouse at a temperature of approximately 15° C. and a relative atmospheric humidity of approximately 80%.
The test is evaluated 21 days after the inoculation. 0% means an efficacy which corresponds to that of the untreated control, while an efficacy of 100% means that no disease is observed.

[1] = system: Blumeria graminis f.sp. hordei; assay: In vivo preventive Blumeria test (barley); details: evaluated 7 days after inoculation
Description: To produce a suitable preparation of active compound, 1 part by weight of active compound or active compound combination is mixed with the stated amounts of solvent and emulsifier, and the concentrate is diluted with water to the desired concentration. To test for preventive activity, young plants are sprayed with the preparation of active compound or active compound combination at the stated rate of application. After the spray coating has been dried, the plants are dusted with spores of Blumeria graminis f.sp. hordei. The plants are placed in the greenhouse at a temperature of approximately 18° C. and a relative atmospheric humidity of approximately 80% to promote the development of mildew pustules.
(§2) The test is evaluated 7 days after the inoculation. 0% means an efficacy which corresponds to that of the untreated control, while an efficacy of 100% means that no disease is observed.

Pyrenophora teres = assay: In vivo preventive Pyrenophora teres test (barley); details: evaluated 8 days after inoculation
Description: as §1, with “Pyrenophora teres.” for “Septoria tritici.”, “approximately” for “approximately 100% and afterwards for 60 hours at approximately 15° C. in a translucent incubation cabinet at a relative atmospheric humidity of approximately”, “20°” for “15°”
(§3) The test is evaluated 8 days after the inoculation. 0% means an efficacy which corresponds to that of the untreated control, while an efficacy of 100% means that no disease is observed.

Venturia inaequalis = assay: In vivo preventive test on Venturia test (apples); details: evaluated 10 days after inoculation
Description: To produce a suitable preparation of active compound, 1 part by weight of active compound is mixed with the stated amounts of solvent and emulsifier, and the concentrate is diluted with water to the desired concentration. To test for preventive activity, young plants are sprayed with the preparation of active compound at the stated rate of application. After the spray coating has dried on, the plants are inoculated with an aqueous conidia suspension of the causal agent of apple scab (Venturia inaequalis) and then remain for 1 day in an incubation cabinet at approximately 20° C. and a relative atmospheric humidity of 100%. The plants are then placed in a greenhouse at approximately 21° C. and a relative atmospheric humidity of approximately 90%.
The test is evaluated 10 days after the inoculation. 0% means an efficacy which corresponds to that of the untreated control, while an efficacy of 100% means that no disease is observed.

Phakopsora pachyrhizi = assay: In vivo preventive test on Phakopsora test (soybeans); details: evaluated 7 days after inoculation
Description: To produce a suitable preparation of active compound, 1 part by weight of active compound is mixed with the stated amounts of solvent and emulsifier, and the concentrate is diluted with water to the desired concentration. To test for preventive activity, young plants are sprayed with the preparation of active compound at the stated rate of application. After the spray coating has dried on, the plants are inoculated with an aqueous spore suspension of the causal agent of soybean rust (Phakopsora pachyrhizi) and stay for 24 h without light in an incubation cabinet at approximately 24° C. and a relative atmospheric humidity of 95%. The plants remain in the incubation cabinet at approximately 24° C. and a relative atmospheric humidity of approximately 80% and a day/night interval of 12h.
as §2

Botrytis cinerea = assay: In vivo preventive test on Botrytis test (beans); details: lesion size evaluated 2 days after inoculation
Description: To produce a suitable preparation of active compound, 1 part by weight of active compound is mixed with the stated amounts of solvent and emulsifier, and the concentrate is diluted with water to the desired concentration. To test for preventive activity, young plants are sprayed with the preparation of active compound. After the spray coating has dried on, 2 small pieces of agar covered with growth of Botrytis cinerea are placed on each leaf. The inoculated plants are placed in a darkened chamber at 20° C. and a relative atmospheric humidity of 100%.
2 days after the inoculation, the size of the lesions on the leaves is evaluated. 0% means an efficacy which corresponds to that of the untreated control, while an efficacy of 100% means that no disease is observed.

Alternaria solani = assay: In vivo preventive test on Alternaria test (tomatoes); details: evaluated 3 days after inoculation
Description: To produce a suitable preparation of active compound, 1 part by weight of active compound is mixed with the stated amounts of solvent and emulsifier, and the concentrate is diluted with water to the desired concentration. To test for preventive activity, young plants are sprayed with the preparation of active compound at the stated rate of application. After the spray coating has dried on, the plants are inoculated with an aqueous spore suspension of Alternaria solani. The plants are then placed in an incubation cabinet at approximately 20° C. and a relative atmospheric humidity of 100%.
The test is evaluated 3 days after the inoculation. 0% means an efficacy which corresponds to that of the untreated control while an efficacy of 100% means that no disease is observed.

Puccinia triticina = assay: In vivo preventive Puccinia triticina test (wheat); details: evaluated 8 days after inoculation
Description: as §1, with “Puccinia triticina.” for “Septoria tritici.”, “approximately” for “approximately 100% and afterwards for 60 hours at approximately 15° C. in a translucent incubation cabinet at a relative atmospheric humidity of approximately”, “20°” for “15°”
as §3

Leptosphaeria nodorum = assay: In vivo preventive Leptosphaeria nodorum test (wheat); details: 25 ppm a.i., evaluated 8 days after inoculation
Description: as §1, with “Leptosphaeria nodorum.” for “Septoria tritici.”, “approximately” for “approximately 100% and afterwards for 60 hours at approximately 15° C. in a translucent incubation cabinet at a relative atmospheric humidity of approximately”, “25°” for “15°”
as §3

Structure (SMILES) | Efficacy in % found ([1]; 50 ppm a.i.) [%] | Efficacy in % found (Pyrenophora teres; 25 ppm a.i.) [%] | Efficacy in % found (Pyrenophora teres; 50 ppm a.i.) [%] | Efficacy in % found (Pyrenophora teres; 100 ppm a.i.) [%] | Efficacy in % found (Venturia inaequalis; 0.5 ppm a.i.) | Efficacy in % found (Phakopsora pachyrhizi; 0.25 ppm a.i.) | Efficacy in % found (Phakopsora pachyrhizi; 0.5 ppm a.i.) [%] | Efficacy in % found (Botrytis cinerea; 0.25 ppm a.i.) [%] | Efficacy in % found (Botrytis cinerea; 0.5 ppm a.i.) [%] | Efficacy in % found (Botrytis cinerea; 1 ppm a.i.) | Efficacy in % found (Alternaria solani; 0.25 ppm a.i.) | Efficacy in % found (Alternaria solani; 0.5 ppm a.i.) [%] | Efficacy in % found (Alternaria solani; 1 ppm a.i.) | Efficacy in % found (Phakopsora pachyrhizi; 1 ppm a.i.) [%] | Efficacy in % found (Puccinia triticina; 25 ppm a.i.) [%] | Efficacy in % found (Venturia inaequalis; 0.25 ppm a.i.) [%] | Efficacy in % found (Venturia inaequalis; 1 ppm a.i.) [%] | other results
CCC1CC(C)(C)c2cccc(NC(=O)c3cccnc3C(F)F)c21 (stereo not shown) [(I-3), 2-(difluoromethyl)-N-(3-ethyl-1,1-dimethyl-2,3-dihydro-1H-inden-4-yl)nicotinamide] | 29 | 13 | 38 | 50 | 11% | 24% | 71 | 0 | 4 | 0% | 15% | 45 | 45% | – | – | – | – | Efficacy in % found (Septoria tritici; 25 ppm a.i.): 17%; Efficacy in % found (Septoria tritici; 50 ppm a.i.): 83%; Efficacy in % found ([1]; 100 ppm a.i.): 57%
CC1CC(C)(C)c2cccc(NC(=O)c3cn(C)nc3C(F)F)c21 (stereo not shown) [1.032, 3-(difluoromethyl)-1-methyl-N-(1,1,3-trimethyl-2,3-dihydro-1H-inden-4-yl)-1H-pyrazole-4-carboxamide, reference compound] | – | – | – | – | 0% | 0% | 0 | 18 | 0 | – | – | 0 | 15% and 8% | 0 | – | – | – | –
CCC[C@@H]1CC(C)(C)c2cccc(NC(=O)c3cccnc3C(F)F)c21 [(I-6), 2-(difluoromethyl)-N-[(3R)-1,1-dimethyl-3-propyl-2,3-dihydro-1H-inden-4-yl]nicotinamide] | 40 | – | – | – | 5% | – | 92 | 0 | 0 | – | 15% | 23 | 45% | – | 90 | 0 | 10 | –
Cn1cc(C(=O)Nc2ccccc2-c2cc(F)c(F)c(F)c2)c(C(F)F)n1 [1.008, fluxapyroxad, reference compound] | – | – | – | – | 8% and 10% | 9% and 0% | 0 | – | – | 8% and 0% | 15% and 8% | 45 | 55% and 78% | 0 | – | – | – | –
CC[C@@H]1CC(C)(C)c2cccc(NC(=O)c3cccnc3C(F)F)c21 [(I-4), 2-(difluoromethyl)-N-[(3R)-3-ethyl-1,1-dimethyl-2,3-dihydro-1H-inden-4-yl]nicotinamide] | – | 22 | 33 | – | 12% | 35% | – | – | – | – | 23% | 30 | 55% | 87 | – | – | 21 | Efficacy in % found (Puccinia triticina; 12.5 ppm a.i.): 80%; Efficacy in % found ([1]; 25 ppm a.i.): 0%; Efficacy in % found (Pyrenophora teres; 12.5 ppm a.i.): 22%; Efficacy in % found (Leptosphaeria nodorum): 0%
CCCC1CC(C)(C)c2cccc(NC(=O)c3cccnc3C(F)F)c21 (stereo not shown) [(I-5), 2-(difluoromethyl)-N-(1,1-dimethyl-3-propyl-2,3-dihydro-1H-inden-4-yl)nicotinamide] | – | 0 | 0 | 50 | 0% | 78% | 84 | – | – | 0% | 0% | 8 | 15% | 85 | 50 | 0 | 15 | –
